Among the test systems are SK-MEL-2 melanoma; RXF 393 renal; MDA-MB-435; OVCAR-8 ovarian; UO-31 renal; BT-549 breast; RPMI-8226 leukemia; SNB-19 CNS; OVCAR-3 ovarian; MCF7 breast.
Common to all, as to assay: DTP human tumour cell line panel, 48 h

This is an account of results in PubChem BioAssay (NCI).

Several values for one entry are separate records, joined by “and”; a condition that tells them apart may be missing. Equal entries are not always repeated.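 Cells were grown in 96-well plates and exposed to each compound for 48 hours at five concentrations; endpoints were interpolated linearly between bracketing concentrations, or set to the highest concentration if not reached. GI50 is the concentration that inhibits growth by half. TGI is the concentration that stops growth completely.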

Consider `COc1cc(/C=C2\C(=O)N(c3ccc(Cl)cc3)C(c3ccccc3)S2(=O)=O)cc(OC)c1OC` (stereo unspecified), for which the TGI with SK-MEL-2 melanoma is greater than 100 µM; in the assay on RXF 393 renal it was greater than 100 µM; with MDA-MB-435, 23.1 µM; in the assay with OVCAR-8 ovarian, greater than 100 µM; in the assay with UO-31 renal, greater than 100 µM; in the assay on BT-549 breast, greater than 100 µM. The concentration for total growth inhibition (TGI) in the assay with RPMI-8226 leukemia was greater than 100 µM; in the assay with SNB-19 CNS, greater than 100 µM; in the assay on OVCAR-3 ovarian, greater than 100 µM; in the assay on MCF7 breast, greater than 63.6 µM.

With `Cc1c(C)c2c(c(N)c1C#N)C(=O)N(NC(=S)Nc1ccccc1)C2=O`, the TGI in the assay on SK-MEL-2 melanoma, with RXF 393 renal, in the assay on MDA-MB-435, with OVCAR-8 ovarian, in the assay with UO-31 renal and in the assay with BT-549 breast was greater than 100 µM in each case. Further, the concentration for total growth inhibition (TGI) with RPMI-8226 leukemia, in the assay with SNB-19 CNS, in the assay with OVCAR-3 ovarian and in the assay with MCF7 breast was greater than 100 µM each time.

In the case of `O=C(Nc1nnc(-c2ccccc2)o1)C(SC(=S)N1CCCC1)c1ccccc1` (stereo unspecified), the TGI with SK-MEL-2 melanoma was greater than 100 µM; with RXF 393 renal it was greater than 100 µM; with MDA-MB-435 it was greater than 100 µM; in the assay with OVCAR-8 ovarian, greater than 100 µM; in the assay on UO-31 renal it was 57.8 µM; with BT-549 breast, 90 µM. Further, the TGI is greater than 100 µM in the assay on RPMI-8226 leukemia, greater than 100 µM in the assay with SNB-19 CNS, 74.4 µM with OVCAR-3 ovarian and greater than 100 µM in the assay with MCF7 breast.

With `CCOC(=O)/C=C(/OCC)[C@@H]1C(C(=O)c2ccc(Cl)cc2)[C@@H]1/C(=C\C(=O)OCC)OCC` (stereo partly specified), the TGI was greater than 100 µM in the assay on SK-MEL-2 melanoma; greater than 78.5 µM in the assay with RXF 393 renal; greater than 83.8 µM in the assay on MDA-MB-435; greater than 100 µM with OVCAR-8 ovarian; greater than 91 µM with UO-31 renal; greater than 100 µM in the assay with BT-549 breast. Besides, the TGI is greater than 23.1 µM in the assay with RPMI-8226 leukemia, greater than 100 µM in the assay with SNB-19 CNS, greater than 100 µM in the assay on OVCAR-3 ovarian and greater than 100 µM in the assay on MCF7 breast.

On to `Cc1cc(C)nc(NS(=O)(=O)c2ccc(NC(=O)c3ccc4nc5ccccc5c(Nc5ccc(S(=O)(=O)N=C(N)N)cc5)c4c3)cc2)n1`, for which the concentration for total growth inhibition (TGI) with SK-MEL-2 melanoma, in the assay with RXF 393 renal, with MDA-MB-435, in the assay on OVCAR-8 ovarian, with UO-31 renal and in the assay with BT-549 breast was greater than 100 µM in each case. Besides, the TGI in the assay with RPMI-8226 leukemia, in the assay on SNB-19 CNS, with OVCAR-3 ovarian and in the assay on MCF7 breast was greater than 100 µM throughout.

For the molecule `N=C(N)c1ccc(N=Nc2c(O)c(C(=O)Nc3ccccc3)cc3ccccc23)cc1`, the TGI in the assay with SK-MEL-2 melanoma was greater than 100 µM; in the assay with RXF 393 renal it was greater than 68.4 µM; in the assay with MDA-MB-435 it was greater than 100 µM; with OVCAR-8 ovarian it was 34.5 µM; in the assay on UO-31 renal, greater than 100 µM; with BT-549 breast, greater than 100 µM. The TGI was 77.7 µM with RPMI-8226 leukemia, 51.5 µM with SNB-19 CNS, greater than 53.3 µM in the assay with OVCAR-3 ovarian and 41.7 µM in the assay with MCF7 breast.

With `COC(=O)[C@]1(c2cc3ccccc3[nH]2)CC2CNC1C1OC(C)(C)OC21` (stereo partly specified), the TGI in the assay on SK-MEL-2 melanoma, in the assay on RXF 393 renal, with MDA-MB-435, in the assay on OVCAR-8 ovarian, in the assay with UO-31 renal and in the assay on BT-549 breast was greater than 100 µM each time. The TGI with RPMI-8226 leukemia, in the assay on SNB-19 CNS, with OVCAR-3 ovarian and in the assay with MCF7 breast was greater than 100 µM throughout.

With `COc1ccc(Nc2nc(N)c(C(=O)c3ccco3)s2)cc1`, the TGI was greater than 83.9 µM with SK-MEL-2 melanoma; greater than 77.6 µM in the assay on RXF 393 renal; 16.9 µM in the assay on MDA-MB-435; greater than 100 µM with OVCAR-8 ovarian; greater than 70.2 µM in the assay on UO-31 renal; greater than 100 µM in the assay with BT-549 breast. Besides, the TGI in the assay on RPMI-8226 leukemia is greater than 85.4 µM; with SNB-19 CNS, greater than 100 µM; in the assay with OVCAR-3 ovarian, greater than 70.6 µM; in the assay with MCF7 breast it was greater than 100 µM.

For the molecule `CCOC(=O)NC(Nc1ccc(C(=O)O)cc1)(C(F)(F)F)C(F)(F)F`, the TGI with SK-MEL-2 melanoma, with RXF 393 renal, in the assay with MDA-MB-435, in the assay with OVCAR-8 ovarian, in the assay on UO-31 renal and in the assay on BT-549 breast was greater than 100 µM in each case. In addition, the TGI with RPMI-8226 leukemia, in the assay on SNB-19 CNS, with OVCAR-3 ovarian and in the assay with MCF7 breast was greater than 100 µM each time.

On to `CC(=O)CCN1CC2CN=NC2(C#N)C1` (stereo unspecified), for which the TGI in the assay on SK-MEL-2 melanoma, with RXF 393 renal, with MDA-MB-435, in the assay with OVCAR-8 ovarian, in the assay on UO-31 renal and with BT-549 breast was greater than 100 µM throughout. Besides, the TGI in the assay with RPMI-8226 leukemia, in the assay on SNB-19 CNS, in the assay with OVCAR-3 ovarian and with MCF7 breast was greater than 100 µM in each case. The GI50 in the assay on RPMI-8226 leukemia was greater than 100 µM.

`NCC1OC(OC2C(N)CC(N)C(O)C2OC2OC(CO)C(O)C2O)C(N)C(O)C1O` (stereo unspecified): the concentration for total growth inhibition (TGI) is greater than 100 µM in the assay on SK-MEL-2 melanoma; greater than 50 µM in the assay with RXF 393 renal; greater than 100 µM with MDA-MB-435; greater than 100 µM with OVCAR-8 ovarian; greater than 100 µM in the assay with UO-31 renal; greater than 100 µM in the assay with BT-549 breast. Besides, the TGI in the assay with RPMI-8226 leukemia, in the assay on SNB-19 CNS, in the assay with OVCAR-3 ovarian and with MCF7 breast was greater than 100 µM throughout. For the same molecule, the GI50 in the assay on RPMI-8226 leukemia was 48 µM and > 100 µM.

Regarding `CCOC(=O)CSc1nc(-c2ccc(Cl)cc2)c(C#N)c(=O)[nH]1`, the TGI in the assay with SK-MEL-2 melanoma, in the assay with RXF 393 renal, with MDA-MB-435, in the assay with OVCAR-8 ovarian, in the assay on UO-31 renal and in the assay on BT-549 breast was greater than 100 µM throughout. In addition, the TGI in the assay with RPMI-8226 leukemia, with SNB-19 CNS, with OVCAR-3 ovarian and with MCF7 breast was greater than 100 µM throughout.

`CC(CSc1nc2c(c(=N)n1-c1ccccc1)c(=S)n(-c1ccccc1)c(=S)n2-c1ccccc1)CN(C)C` (stereo unspecified): the concentration for total growth inhibition (TGI) in the assay with SK-MEL-2 melanoma is 5.29 µM; with RXF 393 renal it was 3.32 µM; in the assay with MDA-MB-435, 3.13 µM; in the assay with OVCAR-8 ovarian, 3 µM; with BT-549 breast, 3.52 µM; in the assay on RPMI-8226 leukemia it was 1.4 µM. In addition, the TGI was 17.8 µM with SNB-19 CNS, 3.09 µM in the assay on OVCAR-3 ovarian and 1.05 µM in the assay on MCF7 breast.
